The structures appear in SMILES notation.

The nature of the test: Inhibition of HIV1 NL4-3 protease assessed as decrease in viral replication in human MT2 cells after 4 days by luciferase reporter gene assay. On the technique in general: A reporter such as luciferase makes a cellular process visible.
Usually EC50 stands for the concentration that produces a half-maximal response. Regarding `COC(=O)N[C@H](C(=O)NN(Cc1ccc(-c2ccccn2)cc1)C[C@H](OC(=O)[C@@H](NC(=O)OC)C(C)(C)C)[C@H](Cc1ccccc1)NC(=O)OC(OC(=O)[C@@H](N)C(C)C)C(C)C)C(C)(C)C` (stereo partly drawn), the EC50 was 5.3 nM.

For `COC(=O)N[C@H](C(=O)NN(Cc1ccc(-c2ccccn2)cc1)C[C@H](OC(=O)[C@@H](NC(=O)OC)C(C)(C)C)[C@@H](N)Cc1ccccc1)C(C)(C)C`, the 50% effective concentration (EC50) was 1.8 nM.

On to `COC(=O)N[C@H](C(=O)N[C@@H](Cc1ccccc1)[C@@H](O)CN(Cc1ccc(-c2ccccn2)cc1)NC(=O)[C@@H](NC(=O)OC)C(C)(C)C)C(C)(C)C` [CGP 73547], for which the EC50 came out at 0.7 nM.

Values taken from BindingDB's records for doi:10.1021/acs.jmedchem.8b00277 (2018).
